Assay results taken from paper PMC4151019 (Clinical Pharmacology and Therapeutics, 2014).
Values joined by “and” are separate entries in the source; they are usually repeats but may differ in a detail not shown here. Equal entries are not always repeated. Where two headings read alike, the source gives them in different places.

Assays:
[1] = assay type: in vivo, human
[2] = system: CYP2D6; conditions: read-out: inhibition constant (Ki); cited from earlier work
[3] = system: CYP2B6; assay: CYP2B6 phenotyping with bupropion; conditions: rifampicin-mediated induction; matrix not stated
[4] = Comparison of probe Cmax and AUC in DBS and plasma; assay type: in vivo, human; conditions: for blood plasma ratio: human, capillary whole blood (DBS) versus venous plasma, oral
[5] = after a single 75-mg bupropion dose; cited from earlier work
[6] = target: T1, CYP1A2 (Homo sapiens, UniProt P05177); assay: CYP1A2 phenotyping with caffeine; conditions: par/caf AUClast ratio in DBS
T1 sequence (P05177 1-516): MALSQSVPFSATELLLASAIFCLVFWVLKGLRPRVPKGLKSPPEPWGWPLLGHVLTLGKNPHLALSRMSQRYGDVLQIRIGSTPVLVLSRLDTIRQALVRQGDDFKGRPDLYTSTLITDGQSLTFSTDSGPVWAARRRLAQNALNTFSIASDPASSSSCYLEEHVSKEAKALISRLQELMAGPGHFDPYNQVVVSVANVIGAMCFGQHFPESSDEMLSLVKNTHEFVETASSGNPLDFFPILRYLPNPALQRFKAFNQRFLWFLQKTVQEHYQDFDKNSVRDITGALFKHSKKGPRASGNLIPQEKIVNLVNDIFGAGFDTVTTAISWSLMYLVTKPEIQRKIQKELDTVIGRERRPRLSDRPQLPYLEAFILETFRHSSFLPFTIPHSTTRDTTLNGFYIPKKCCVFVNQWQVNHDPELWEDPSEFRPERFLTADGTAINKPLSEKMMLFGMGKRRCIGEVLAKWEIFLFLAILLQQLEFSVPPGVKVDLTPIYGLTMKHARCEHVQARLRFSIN

[7] = Side effects reported by volunteers; conditions: 10 healthy volunteers
[8] = target: CYP2C19 (Homo sapiens, UniProt P33261); conditions: previous studies; cited from earlier work
CYP2C19, sequence (P33261 whole entry): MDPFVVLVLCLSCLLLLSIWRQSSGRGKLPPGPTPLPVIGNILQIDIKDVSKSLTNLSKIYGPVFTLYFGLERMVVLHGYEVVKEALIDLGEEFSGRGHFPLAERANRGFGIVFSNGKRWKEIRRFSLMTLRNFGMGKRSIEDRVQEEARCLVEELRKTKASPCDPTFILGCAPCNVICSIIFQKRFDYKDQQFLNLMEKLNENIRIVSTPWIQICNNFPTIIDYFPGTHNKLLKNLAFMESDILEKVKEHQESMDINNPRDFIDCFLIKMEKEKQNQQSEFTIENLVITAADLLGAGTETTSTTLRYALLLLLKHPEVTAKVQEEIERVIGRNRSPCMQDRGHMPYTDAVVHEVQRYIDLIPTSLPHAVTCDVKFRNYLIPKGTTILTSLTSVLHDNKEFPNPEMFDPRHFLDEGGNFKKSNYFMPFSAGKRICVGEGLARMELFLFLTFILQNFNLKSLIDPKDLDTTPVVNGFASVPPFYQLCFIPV

[9] = system: CYP3A; assay: CYP3A phenotyping with midazolam; conditions: voriconazole 400 mg 2 h before cocktail
[10] = after a 75-mg single dose, from free plasma fraction and liver/plasma ratio
[11] = after a single 25-mg dose, approximately 3 times less than 75 mg

CC(NC(C)(C)C)C(=O)c1cccc(Cl)c1 (centres unmarked) [Bupropion, bupropion]
maximal estimated liver concentrations [1, 10]: 0.73 µmol/L | maximal estimated liver concentrations [1, 11]: 0.24 µmol/L | Ki [2]: 21 µM | decrease in bupropion AUC [3]: approximately threefold

COc1ccc2c(c1)[C@]13CCCC[C@@H]1[C@H](C2)N(C)CC3 [Dextromethorphan, dextromethorphan]
Cmax and AUC in DBS vs plasma (mean ratio, blood to plasma ratio) ([4]; capillary DBS vs venous plasma): higher in DBS

CC(C(=O)O)c1ccc(-c2ccccc2)c(F)c1 (centres unmarked) [Flurbiprofen, flurbiprofen]
blood plasma ratio [4]: ~0.6

Cc1ncc2n1-c1ccc(Cl)cc1C(c1ccccc1F)=NC2 [Midazolam, midazolam]
blood plasma ratio [4]: ~0.6

CC(NC(C)(C)CO)C(=O)c1cccc(Cl)c1 (centres unmarked) [OH-bup, 4′-hydroxybupropion]
maximal plasma concentrations [5]: 0.52 µmol/L | maximal estimated liver concentrations [1, 10]: 1.13 µmol/L | maximal estimated liver concentrations [1, 11]: 0.38 µmol/L | Ki [2]: 13.3 µM

COc1ccc2[nH]c([S+]([O-])Cc3ncc(C)c(OC)c3C)nc2c1 (centres unmarked) [Omeprazole, omeprazole]
blood plasma ratio [4]: ~0.6

CC(NC(C)(C)C)C(O)c1cccc(Cl)c1 (centres unmarked) [erythrohydrobupropion]
maximal plasma concentrations [5]: 0.03 µmol/L | maximal estimated liver concentrations [1, 10]: 0.16 µmol/L | maximal estimated liver concentrations [1, 11]: 0.05 µmol/L | Ki [2]: 1.7 µM

COCCCC/C(=N\OCCN)c1ccc(C(F)(F)F)cc1 [fluvoxamine]
effect on CYP1A2 activity [6]: potently inhibited | reported side effects [7]: four volunteers reported short-lasting troubled vision

CO[C@H]1/C=C/O[C@@]2(C)Oc3c(C)c(O)c4c(O)c(c(/C=N/N5CCN(C)CC5)c(O)c4c3C2=O)NC(=O)/C(C)=C\C=C\[C@H](C)[C@H](O)[C@@H](C)[C@@H](O)[C@@H](C)[C@H](OC(C)=O)[C@@H]1C [rifampicin]
effect on CYP1A2 activity [6]: slightly, but not significantly, increased | extent of CYP2C19 induction [8]: 4.2 fold and 2.6 fold

C[C@H](NC(C)(C)C)[C@@H](O)c1cccc(Cl)c1 [threohydrobupropion]
maximal plasma concentrations [5]: 0.24 µmol/L | maximal estimated liver concentrations [1, 10]: 1.31 µmol/L | maximal estimated liver concentrations [1, 11]: 0.44 µmol/L | Ki [2]: 5.4 µM

C[C@@H](c1ncncc1F)[C@](O)(Cn1cncn1)c1ccc(F)cc1F [voriconazole]
reported side effects [7]: four volunteers reported short-lasting troubled vision | effect on CYP3A activity [9]: significantly inhibited
